Reference: PubChem BioAssay (NCI)
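Grown in 96-well plates, cells were treated for 48 hours with each compound at five concentrations. Insufficient inhibition: endpoint recorded as highest concentration tested. TGI denotes the concentration required for complete inhibition of growth.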

What was measured:
Test in all cases: NCI tumour cell line growth inhibition, 48 h
[1] = system: 786-0 renal
[2] = system: A498 renal
[3] = system: A549 NSCLC
[4] = system: ACHN renal
[5] = system: CAKI-1 renal
[6] = system: CCRF-CEM leukemia
[7] = system: COLO 205 colon
[8] = system: DLD-1 colon
[9] = system: DMS 114 small cell lung
[10] = system: DMS 273 small cell lung
[11] = system: EKVX NSCLC
[12] = system: HCC-2998 colon
[13] = system: HCT-116 colon
[14] = system: HCT-15 colon
[15] = system: HL-60(TB) leukemia
[16] = system: HOP-18 NSCLC
[17] = system: HOP-62 NSCLC
[18] = system: HOP-92 NSCLC
[19] = system: HT29 colon
[20] = system: IGROV1 ovarian
[21] = system: K-562 leukemia
[22] = system: KM12 colon
[23] = system: KM20L2 colon
[24] = system: LOX IMVI melanoma
[25] = system: LXFL 529 NSCLC
[26] = system: M14 melanoma
[27] = system: M19-MEL melanoma
[28] = system: MALME-3M melanoma
[29] = system: MOLT-4 leukemia
[30] = system: NCI-H226 lung
[31] = system: NCI-H23 lung
[32] = system: NCI-H460 lung
[33] = system: NCI-H522 lung
[34] = system: OVCAR-3 ovarian
[35] = system: OVCAR-4 ovarian
[36] = system: OVCAR-5 ovarian
[37] = system: OVCAR-8 ovarian
[38] = system: RPMI-8226 leukemia
[39] = system: RXF 393 renal
[40] = system: SF-268 CNS
[41] = system: SF-295 CNS
[42] = system: SF-539 CNS
[43] = system: SK-MEL-2 melanoma
[44] = system: SK-MEL-28 melanoma
[45] = system: SK-MEL-5 melanoma
[46] = system: SK-OV-3 ovarian
[47] = system: SN12C renal
[48] = system: SNB-19 CNS
[49] = system: SNB-75 CNS
[50] = system: SNB-78 CNS
[51] = system: SR leukemia
[52] = system: SW-620 colon
[53] = system: TK-10 renal
[54] = system: U251 CNS
[55] = system: UACC-257 melanoma
[56] = system: UACC-62 melanoma
[57] = system: UO-31 renal
[58] = system: XF 498 CNS

Measured: TGI

CCCCCCNC(=O)CCN(C(=O)O)S(=O)(=O)c1ccc(NC(=O)c2ccccc2)cc1
> 69.6 µM: [55]
38.4 µM: [42]
52.3 µM: [6]
> 71.1 µM: [21]
> 53.1 µM: [9]
> 77.7 µM: [56]
> 58.4 µM: [14]
30.6 µM: [52]
> 62.2 µM: [24] | [32]
43.2 µM: [8]
> 64.2 µM: [15]
53.8 µM: [51]
> 55.2 µM: [10]
> 66.2 µM: [3]
> 59.5 µM: [13]
42.3 µM: [54]
54.4 µM: [38]
> 81.6 µM: [27]
> 60.1 µM: [29]
> 59.8 µM: [7]
> 100 µM: all other assays above

C#Cc1c(C)c(/C=C/C(C)=C\C(=O)OC)n(C)c1C
not listed: [13] | [39] | [43] | [44] | [45] | [49] | [51]
> 100 µM: all other assays above

N/N=C1/C(=O)N(c2ccc(Cl)cc2)C(=O)C(=O)C1c1nc2ccccc2s1 (stereo not given)
not listed: [30] | [51]
> 100 µM: all other assays above
